The source of these data is patent publication US9334285B2, “Aldosterone synthase inhibitors” (Boehringer Ingelheim International GmbH, priority 2014, dated 2016).

Assay [1] deals with T1, aldosterone synthase (CYP11B2) (Macaca fascicularis, UniProt A0A2K5UPL9).
T1 construct: employ cynomolgus adrenal gland mitochondria as the source of aldosterone synthase (CYP11B2); from tissue; host or cells: cynomolgus monkey adrenal gland mitochondria
T1 sequence (A0A2K5UPL9 1-503): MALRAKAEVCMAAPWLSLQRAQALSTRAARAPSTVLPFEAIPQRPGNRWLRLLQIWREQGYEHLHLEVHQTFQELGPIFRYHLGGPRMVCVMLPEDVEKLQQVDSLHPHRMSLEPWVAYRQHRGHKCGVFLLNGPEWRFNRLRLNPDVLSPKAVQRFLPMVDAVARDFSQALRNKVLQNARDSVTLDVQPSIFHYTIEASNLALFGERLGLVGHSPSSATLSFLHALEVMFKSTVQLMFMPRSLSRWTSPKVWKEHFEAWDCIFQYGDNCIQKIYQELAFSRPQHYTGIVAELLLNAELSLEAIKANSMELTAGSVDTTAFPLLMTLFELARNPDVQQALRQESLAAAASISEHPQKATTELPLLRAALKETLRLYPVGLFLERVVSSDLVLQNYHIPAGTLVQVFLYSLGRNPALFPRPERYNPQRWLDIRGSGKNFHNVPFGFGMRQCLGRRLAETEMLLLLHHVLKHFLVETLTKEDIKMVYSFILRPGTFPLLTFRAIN
The assay is described as follows: Inhibition of aldosterone synthase, cynomolgus adrenal mitochondria, aldosterone quantified by mass spectrometry. Type of assay: biochemical, cynomolgus monkey. The following applies: 2 μM corticosterone, 90 minutes at 37° C. As for the experimental part: The aldosterone synthase and cortisol synthase inhibition assays employ cynomolgus adrenal gland mitochondria as the source of aldosterone synthase (CYP11B2) and cortisol synthase (CYP11B1). […] One unit of CYP11B2 and CYP11B1 activity in these preparations is defined as the amount of enzyme that generates 1 pmol of product in one hour under the conditions described.
The compounds of the invention may be evaluated for aldosterone synthase inhibition by the following assay:
Assays are performed in 96-well format in a final volume of 60 microL/well, containing 100 mM potassium phosphate, pH 7.4, 1% (v/v) DMSO, and additionally, 2 μM of corticosterone and 50 units of CYP11B2 activity. Reactions are started by the addition of NADPH to 1 mM and allowed to proceed for 90 minutes at 37° C. Reactions are terminated by the addition of 60 μL of MeCN containing an internal standard for mass spectrometry. One hundred microliters are then transferred to a glass filter plate and centrifuged at 570×g for 5 minutes and the filtrate is collected. Reaction product aldosterone is quantified by mass spectrometry. To determine the assay blank value (0% activity), NADPH is omitted from some reactions.
(§1) Dose dependent inhibition is quantified by the inclusion of compound at various concentrations. Maximum activity (100%) is defined by reactions containing NADPH, but without compound.

The target of assay [2] is cortisol synthase (CYP11B1) (Macaca fascicularis, UniProt A0A2K5ULY1). The assay is described as follows: Inhibition of cortisol synthesis, cynomolgus adrenal mitochondria, 11-deoxycortisol as substrate. The following applies: 150 units of CYP11B1, 11-deoxycortisol as substrate. Type of assay: biochemical, cynomolgus monkey. As for the experimental part: The aldosterone synthase and cortisol synthase inhibition assays employ cynomolgus adrenal gland mitochondria as the source of aldosterone synthase (CYP11B2) and cortisol synthase (CYP11B1). Mitochondria are prepared from frozen cynomolgus monkey adrenal glands according to Method A described in by J. D. McGarry et al. (Biochem. J., 1983, 214, 21-28), with a final resuspension in the AT buffer described in R. Yamaguchi et al. (Cell Death and Differentiation, 2007, 14, 616-624), frozen as aliquots in liquid nitrogen and stored at −80° C. until use. One unit of CYP11B2 and CYP11B1 activity in these preparations is defined as the amount of enzyme that generates 1 pmol of product in one hour under the conditions described.
Assays are performed as for aldosterone synthase except for the use of 150 units of CYP11B1, 11-deoxycortisol as substrate and cortisol measured as product.

The next assay has as its target T2, rhCYP17A1 (Homo sapiens, UniProt P05093).
T2 construct: purchased Cypex
T2 sequence (P05093 1-508): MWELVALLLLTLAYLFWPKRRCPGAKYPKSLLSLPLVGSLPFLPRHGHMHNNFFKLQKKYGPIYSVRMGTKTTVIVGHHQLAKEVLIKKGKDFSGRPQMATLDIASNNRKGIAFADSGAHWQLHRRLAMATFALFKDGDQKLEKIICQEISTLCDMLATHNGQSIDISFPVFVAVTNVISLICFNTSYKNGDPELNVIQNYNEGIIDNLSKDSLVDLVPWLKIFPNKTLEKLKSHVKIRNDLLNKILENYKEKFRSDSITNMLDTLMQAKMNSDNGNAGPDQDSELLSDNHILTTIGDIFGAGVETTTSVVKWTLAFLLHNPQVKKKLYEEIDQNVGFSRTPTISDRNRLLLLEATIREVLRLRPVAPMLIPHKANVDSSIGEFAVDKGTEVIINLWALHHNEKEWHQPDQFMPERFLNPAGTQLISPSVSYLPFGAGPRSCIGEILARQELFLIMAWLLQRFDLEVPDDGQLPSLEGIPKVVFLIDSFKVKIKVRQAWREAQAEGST
The assay is described as follows: Inhibition of CYP17A1, progesterone to 17-α-hydroxyprogesterone, mass spectrometry. Type of assay: biochemical. The following applies: rhCYP17A1, 150 nM progesterone, 15 minutes at 37° C.; read-out: CYP17A1 IC50. As for the experimental part:
Compounds of the invention may also be evaluated for inhibition of CYP17A1 via the following assay:
Reactions are started by the addition of NADPH to 1 mM and allowed to proceed for 15 minutes at 37° C. Reactions are terminated by the addition of 40 μL of MeCN containing an internal standard for mass spectrometry. The plates are centrifuged at 3000 rpm for 5 min and the reaction product 17-α-hydroxyprogesterone is quantified by mass spectrometry. To determine the assay blank value (0% activity), NADPH is omitted from some reactions.
as §1

The target of the next assay is T3, CYP19A1 (Homo sapiens, UniProt P11511).
T3 sequence (P11511 1-503): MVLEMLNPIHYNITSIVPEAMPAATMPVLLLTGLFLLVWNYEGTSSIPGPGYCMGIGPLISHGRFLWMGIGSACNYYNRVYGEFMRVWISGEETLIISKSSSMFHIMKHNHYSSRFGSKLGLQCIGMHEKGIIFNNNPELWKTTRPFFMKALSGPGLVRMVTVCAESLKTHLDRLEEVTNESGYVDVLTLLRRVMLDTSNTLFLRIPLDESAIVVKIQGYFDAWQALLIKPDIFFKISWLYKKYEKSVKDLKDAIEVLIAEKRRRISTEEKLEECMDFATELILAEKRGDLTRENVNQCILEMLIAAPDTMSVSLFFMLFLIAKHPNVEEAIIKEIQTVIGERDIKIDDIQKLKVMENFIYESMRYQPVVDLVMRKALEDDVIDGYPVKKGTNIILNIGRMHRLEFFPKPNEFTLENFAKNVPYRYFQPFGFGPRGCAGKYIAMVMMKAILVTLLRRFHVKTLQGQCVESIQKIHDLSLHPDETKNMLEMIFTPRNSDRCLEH
The experiment in a line: Inhibition of CYP19A1 (Kragie et al.). Type of assay: biochemical. The following applies: read-out: CYP19A1 IC50.

Where [3] appears, read: Cortisol Inhibition IC50, cynomolgus adrenal mitochondria.
Setting [4] is: cynomolgus adrenal mitochondria, read-out: Cortisol Inhibition IC50.

Like-named read-outs stand apart in the source and are kept apart here.

What is called IC50 is the concentration needed to halve the response being measured. For the molecule `C[C@@]1(CO)Cc2ncn(-c3ccc(C#N)c(Cl)c3)c2C(=O)O1` (single isomer, unassigned) [Compound 29B], the IC50 in assay [1] is 0.048 µM; in assay [2] (setting [3]) it was 23 µM; at rhCYP17A1, > 20 µM; on CYP19A1, > 20 µM.
In the case of `CC1Cc2ncn(-c3ccc(C#N)cc3)c2C(=O)O1` (single isomer, unassigned) [Compound 16B, 4[6-methyl-4-oxo-3H,4H,6H,7H-pyrano[3,4-d]imidazol-3-yl]benzonitrile], the IC50 in assay [1] was 0.16 µM; in assay [2] (setting [4]), 35 µM; on rhCYP17A1, > 20 µM; at CYP19A1, > 20 µM.
With `CC1(C)Cc2ncn(-c3ccc(C#N)cc3F)c2C(=O)O1` [Compound 19, 4-{6,6-dimethyl-4-oxo-3H,4H,6H,7H-pyrano[3,4-d]imidazol-3-yl}-3-fluorobenzonitrile], the IC50 is 0.046 µM in assay [1], 7.1 µM in assay [2] (setting [4]), > 20 µM at rhCYP17A1 and > 20 µM at CYP19A1.
In the case of `CC1(C)Cc2ncn(-c3ccc(C#N)c(F)c3)c2C(=O)O1` [Compound 10, 4-{6,6-dimethyl-4-oxo-3H,4H,6H,7H-pyrano[3,4-d]imidazol-3-yl}-2-fluorobenzonitrile], the IC50 is 0.043 µM in assay [1], 4.2 µM in assay [2] (setting [3]), > 20 µM on rhCYP17A1 and > 20 µM on CYP19A1.
With `Cc1cc(C#N)ccc1-n1cnc2c1C(=O)OC(C)(CO)C2` (single isomer, unassigned) [Compound 31B, 4-[6-(hydroxymethyl)-6-methyl-4-oxo-3H,4H,6H,7H-pyrano[3,4-d]imidazol-3-yl]-3-methylbenzonitrile], the IC50 in assay [1] is 0.21 µM; in assay [2] (setting [4]), 24 µM; on rhCYP17A1 it was > 20 µM; on CYP19A1, > 20 µM.
On to `CC1(C)Cc2ncn(-c3cccc(Cl)c3F)c2C(=O)O1` [Compound 8, 3-(3-chloro-2-fluorophenyl)-6,6-dimethyl-3H,4H,6H,7H-pyrano[3,4-d]imidazol-4-one], for which the IC50 in assay [1] was 0.035 µM; in assay [2] (setting [4]) it was 5.3 µM; at rhCYP17A1, > 20 µM; at CYP19A1, > 20 µM.
Regarding `CC1(C)Cc2ncn(-c3ccc(C#N)c(Cl)c3)c2C(=O)O1` [Compound 6, 2-chloro-4-{6,6-dimethyl-4-oxo-3H,4H,6H,7H-pyrano[3,4-d]imidazol-3-yl}benzonitrile], the IC50 in assay [1] was 0.0053 µM; in assay [2] (setting [3]), 2.5 µM; at rhCYP17A1, > 20 µM; at CYP19A1 it was > 20 µM.
In the case of `CC1(C)Cc2ncn([C@H]3CC[C@H](C#N)CC3)c2C(=O)O1` [Compound 28, trans-4-(6,6-Dimethyl-4-oxo-6,7-dihydro-4H-pyrano[3,4-d]imidazol-3-yl)-cyclohexanecarbonitrile], the IC50 in assay [1] is 0.075 µM; in assay [2] (setting [4]) it was 16 µM; on rhCYP17A1, > 20 µM; at CYP19A1, > 20 µM.
As to `Cc1cc(C#N)ccc1-n1cnc2c1C(=O)OC(C)(C)C2` [Compound 13, 4-{6,6-dimethyl-4-oxo-3H,4H,6H,7H-pyrano[3,4-d]imidazol-3-yl}-3-methylbenzonitrile], the 50% inhibitory concentration (IC50) in assay [1] was 0.0063 µM; in assay [2] (setting [3]) it was 2.2 µM; at rhCYP17A1 it was > 20 µM; at CYP19A1 it was > 20 µM.
Turning to `CC1(C)Cc2ncn(-c3ccc(F)c(F)c3)c2C(=O)O1` [Compound 2, 3-(3,4-difluorophenyl)-6,6-dimethyl-3H,4H,6H,7H-pyrano[3,4-d]imidazol-4-one], the IC50 in assay [1] was 0.091 µM; in assay [2] (setting [4]), 3.4 µM; on rhCYP17A1, > 20 µM; at CYP19A1 it was > 20 µM.
Consider `Cc1cc(-n2cnc3c2C(=O)OC(C)(CO)C3)ccc1C#N` (single isomer, unassigned) [Compound 39B, 4-[6-(hydroxymethyl)-6-methyl-4-oxo-3H,4H,6H,7H-pyrano[3,4-d]imidazol-3-yl]-2-methylbenzonitrile], for which the concentration for half-maximal inhibition (IC50) in assay [1] is 0.013 µM; in assay [2] (setting [3]), 8.6 µM; at rhCYP17A1, > 20 µM; at CYP19A1, > 20 µM.
Take `CC1Cc2ncn(-c3ccc(C#N)cc3)c2C(=O)O1` (single isomer, unassigned) [Compound 16A, 4[6-methyl-4-oxo-3H,4H,6H,7H-pyrano[3,4-d]imidazol-3-yl]benzonitrile]: the half-maximal inhibitory concentration (IC50) in assay [1] is 0.1 µM; in assay [2] (setting [4]), 26 µM; on rhCYP17A1 it was > 20 µM; on CYP19A1, > 20 µM.
Consider `CC1(C)Cc2ncn(-c3ccc(C#N)cc3)c2C(=O)O1` [Compound 3, 4-{6,6-dimethyl-4-oxo-3H,4H,6H,7H-pyrano[3,4-d]imidazol-3-yl}benzonitrile], for which the IC50 in assay [1] is 0.035 µM; in assay [2] (setting [4]), 8.7 µM; on rhCYP17A1, > 20 µM; at CYP19A1 it was > 20 µM.
In the case of `CC1(C=O)Cc2ncn(-c3ccc(C#N)c(Cl)c3)c2C(=O)O1` (stereo not drawn) [Compound 43, 2-Chloro-4-(6-formyl-6-methyl-4-oxo-6,7-dihydro-4H-pyrano[3,4-d]imidazol-3-yl)-benzonitrile], the 50% inhibitory concentration (IC50) was 0.54 µM in assay [1], > 30 µM in assay [2] (setting [3]), > 20 µM on rhCYP17A1 and > 20 µM on CYP19A1.
With `CN1C(=O)CCc2cc(-n3cnc4c3C(=O)OC(C)(C)C4)ccc21` [Compound 5, 6-{6,6-dimethyl-4-oxo-3H,4H,6H,7H-pyrano[3,4-d]imidazol-3-yl}-1-methyl-1,2,3,4-tetrahydroquinolin-2-one], the IC50 in assay [1] is 0.11 µM; in assay [2] (setting [4]), 40 µM; on rhCYP17A1 it was > 20 µM; at CYP19A1, > 20 µM.
